Experimental data reported in PMC6790288 (The journal of pain : official journal of the American Pain …, 2019).

What was measured:
[1] = achiral analyses of blood; intoxication with the labelled substance; cited from earlier work
[2] = cited from earlier work
[3] = test system: healthy participants; experiment: Drug-related adverse events
[4] = 12 participants, 5 days rifampicin, 100 mg oral tramadol; cited from earlier work
[5] = tramadol and its metabolites; cited from earlier work
[6] = test system: cold-induced pain; conditions: VAS, mean [SD], cited from earlier work
[7] = test system: cold-induced pain; experiment: Cold pressor test; type: in vivo, human; conditions: trial A
[8] = test system: healthy participants; experiment: Respiratory rate; conditions: trial B (with paroxetine), n = 60; MPD (SD)
[9] = test system: pupil diameter; experiment: Pupillometry; type: in vivo, human; conditions: trial A; for Pupil diameter, predose: before first dose of segment
[10] = test system: healthy participants; experiment: Abuse liability visual analog scales; type: in vivo, human; conditions: trial A, n = 43, 0–100 mm VAS after seventh dose, M (SD)

Compound: COc1cccc(C2(O)CCCCC2CN(C)C)c1 (centres unmarked) [Tramadol, tramadol]
- mean blood M1 level in fatal intoxications [1]: 1,900 ng/mL
- lethal dose [2]: > 5 g
- median ingested dose in overdose with respiratory depression ([2]; in vivo): 2,500 mg
- median ingested dose in overdose with no respiratory depression ([2]; range = 450−6,000 mg): 1,000 mg
- Deaths ([3]; trial A): 0 (0) n (%)
- Severe AEs ([3]; trial A): 0 (0) n (%)
- participants reporting drug-related AEs ([3]; trial A): 49%
- Dizziness ([3]; trial A, all): 5(12) n (%)
- Euphoria ([3]; trial A, all): 0 (0) n (%)
- Feel abnormal ([3]; trial A, all): 1 (2) n (%)
- Feel hot ([3]; trial A, all): 0 (0) n (%)
- Headache ([3]; trial A, all): 7(17) n (%)
- Nausea ([3]; trial A, all): 5(12) n (%)
- Presyncope ([3]; trial A, all): 0 (0) n (%)
- Pruritus ([3]; trial A, all): 4(10) n (%)
- Somnolence ([3]; trial A, all): 2 (5) n (%)
- Spasticity ([3]; trial A, all): 1 (2) n (%)
- Sweating ([3]; trial A, all): 0 (0) n (%)
- Vomiting ([3]; trial A, all): 1 (2) n (%)
- Dizziness ([3]; trial A, male): 5(12) n (%)
- Euphoria ([3]; trial A, male): 0 (0) n (%)
- Feel abnormal ([3]; trial A, male): 1 (2) n (%)
- Feel hot ([3]; trial A, male): 0 (0) n (%)
- Headache ([3]; trial A, male): 7(17) n (%)
- Nausea ([3]; trial A, male): 5(12) n (%)
- Presyncope ([3]; trial A, male): 0 (0) n (%)
- Pruritus ([3]; trial A, male): 4(10) n (%)
- Somnolence ([3]; trial A, male): 2 (5) n (%)
- Spasticity ([3]; trial A, male): 1 (2) n (%)
- Sweating ([3]; trial A, male): 0 (0) n (%)
- Vomiting ([3]; trial A, male): 1 (2) n (%)
- All drug-related AEs ([3]; trial A, n = 43 (all male)): 20 (49) n (%)
- Deaths ([3]; trial B): 0 (0) n (%)
- Severe AEs ([3]; trial B): 0 (0) n (%)
- participants reporting drug-related AEs ([3]; trial B (with paroxetine)): 50%
- All drug-related AEs ([3]; trial B (with paroxetine), n = 60): 30 (50) n (%)
- Dizziness ([3]; trial B, all): 8(13) n (%)
- Euphoria ([3]; trial B, all): 1 (2) n (%)
- Feel abnormal ([3]; trial B, all): 2 (3) n (%)
- Feel hot ([3]; trial B, all): 0 (0) n (%)
- Headache ([3]; trial B, all): 6(10) n (%)
- Nausea ([3]; trial B, all): 8(13) n (%)
- Presyncope ([3]; trial B, all): 1 (2) n (%)
- Pruritus ([3]; trial B, all): 1 (2) n (%)
- Somnolence ([3]; trial B, all): 4(7) n (%)
- Spasticity ([3]; trial B, all): 3 (5) n (%)
- Sweating ([3]; trial B, all): 1 (2) n (%)
- Vomiting ([3]; trial B, all): 2 (3) n (%)
- Dizziness ([3]; trial B, female): 4(22) n (%)
- Euphoria ([3]; trial B, female): 0 (0) n (%)
- Feel abnormal ([3]; trial B, female): 0 (0) n (%)
- Feel hot ([3]; trial B, female): 0 (0) n (%)
- Headache ([3]; trial B, female): 6 (33) n (%)
- Nausea ([3]; trial B, female): 2(11) n (%)
- Presyncope ([3]; trial B, female): 0 (0) n (%)
- Pruritus ([3]; trial B, female): 1 (6) n (%)
- Somnolence ([3]; trial B, female): 2(11) n (%)
- Spasticity ([3]; trial B, female): 0 (0) n (%)
- Sweating ([3]; trial B, female): 0 (0) n (%)
- Vomiting ([3]; trial B, female): 0 (0) n (%)
- Dizziness ([3]; trial B, male): 4(10) n (%)
- Euphoria ([3]; trial B, male): 1 (2) n (%)
- Feel abnormal ([3]; trial B, male): 2 (5) n (%)
- Feel hot ([3]; trial B, male): 0 (0) n (%)
- Headache ([3]; trial B, male): 0 (0) n (%)
- Nausea ([3]; trial B, male): 6(14) n (%)
- Presyncope ([3]; trial B, male): 1 (2) n (%)
- Pruritus ([3]; trial B, male): 0 (0) n (%)
- Somnolence ([3]; trial B, male): 2 (5) n (%)
- Spasticity ([3]; trial B, male): 3 (7) n (%)
- Sweating ([3]; trial B, male): 1 (2) n (%)
- Vomiting ([3]; trial B, male): 2 (5) n (%)
- headache incidence, tramadol compared with desmetramadol AE profile ([3]; trial B, same participants): −40%
- nausea incidence, tramadol compared with desmetramadol AE profile ([3]; trial B, same participants): −50%
- presyncope incidence, tramadol compared with desmetramadol AE profile ([3]; trial B, same participants): −83%
- pruritus incidence, tramadol compared with desmetramadol AE profile ([3]; trial B, same participants): −75%
- somnolence incidence, tramadol compared with desmetramadol AE profile ([3]; trial B, same participants): −60%
- vomiting incidence, tramadol compared with desmetramadol AE profile ([3]; trial B, same participants): −78%
- decrease of AUC by rifampicin induction [4]: 59%
- tramadol dose appearing in the urine [5]: > 90%
- peak mean pain perception to cold after tramadol ([6]; after a single 50 mg dose of tramadol): 5.0 [2.3] cm
- peak mean pain perception to cold before tramadol ([6]; before a single 50 mg dose of tramadol): 6.3 [2.0] cm
- average duration of tolerance to pain [7]: 62 s
- Average postdose respiratory rate, mean paired difference versus placebo [8]: −.34 [.99] min^−1
- pupil diameter, mean paired reduction compared with placebo ([9]; after dosing, mean (SD)): −.7 (.6) mm
- Pupil diameter, after seventh dose ([9]; n = 43, M (SD)): 5.5 (1.1) mm
- Pupil diameter, predose ([9]; n = 43, M (SD)): 6.1 (.9) mm
- Pupil diameter, predose ([9]; n = 43, M (SD), listed as tramadol): 6.1 [.9] mm
- Drug liking-disliking [10]: 48(15) mm
- Strength of drug effect [10]: 32 (29) mm
- Take drug again [10]: 47(18) mm
- Strength of drug effect ([10]; listed as tramadol): 32 [29] mm
